Columns and labels:
[1] = target: T1, Prostaglandin E2 receptor EP3 subtype (Homo sapiens, UniProt P43115); experiment: Displacement of [3H]PGE2 from human EP3 receptor at 20 uM in presence of normal buffer
T1 sequence (P43115 whole entry): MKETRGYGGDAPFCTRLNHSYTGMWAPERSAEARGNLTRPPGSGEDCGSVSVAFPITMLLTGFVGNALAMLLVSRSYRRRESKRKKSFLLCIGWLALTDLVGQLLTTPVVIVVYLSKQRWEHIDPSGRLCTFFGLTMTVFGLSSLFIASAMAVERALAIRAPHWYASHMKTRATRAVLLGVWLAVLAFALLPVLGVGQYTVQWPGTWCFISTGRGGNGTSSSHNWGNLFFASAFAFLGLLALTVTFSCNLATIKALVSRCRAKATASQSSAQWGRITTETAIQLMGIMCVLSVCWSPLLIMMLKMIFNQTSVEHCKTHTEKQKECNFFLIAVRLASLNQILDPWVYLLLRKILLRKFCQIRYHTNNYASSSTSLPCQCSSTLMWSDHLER

[2] = target: T2, Prostaglandin E2 receptor EP3 subtype (Homo sapiens) (UniProt P43115); experiment: Ratio IC50 for human EP3 receptor in presence of human serum to IC50 for human EP3 in absence of human serum
T2 sequence (whole entry): T1 sequence (P43115 whole entry)

[3] = target: T1, Prostaglandin E2 receptor EP3 subtype; experiment: Displacement of [3H]PGE2 from human EP3 receptor at 20 uM in presence of 10% human serum

For Cn1cc(/C=C/C(=O)NS(=O)(=O)c2ccc(Cl)cc2)c2c(Oc3ccc4ccccc4c3)cccc21, which IC50 [1] is on record?
Its IC50 is 21.9 nM.

And the Ratio IC50 [2]?
The Ratio IC50 was 50.2.

And the IC50 [3]?
Its IC50 is 1100 nM.

What does the source list for Cn1cc(/C=C/C(=O)NS(=O)(=O)c2ccc(Cl)c(Cl)c2)c2c(Oc3ccc4ccccc4c3)cccc21?
IC50 [1]: 11.8 nM; Ratio IC50 [2]: 7.8; IC50 [3]: 92.9 nM

Cn1cc(/C=C/C(=O)NS(=O)(=O)c2c(F)cccc2F)c2c(Oc3ccc4ccccc4c3)cccc21 was tested. Which IC50 [1] did it give?
The IC50 was 5.9 nM.

What about the Ratio IC50 [2] of the same compound?
Its Ratio IC50 is 121.

And the IC50 [3]?
Its IC50 is 710 nM.

Which IC50 [1] does the source give for Cn1cc(/C=C/C(=O)NS(=O)(=O)c2cccc(F)c2)c2c(Oc3ccc4ccccc4c3)cccc21 here?
The IC50 was 17.5 nM.

What about the Ratio IC50 [2] of the same compound?
Its Ratio IC50 is 6.6.

What about the IC50 [3] of the same compound?
The IC50 was 116 nM.

COc1cccc(Oc2cccc3c2c(/C=C/C(=O)NS(=O)(=O)c2cc(F)c(F)cc2F)cn3C)c1 was tested. Which IC50 [1] did it give?
Its IC50 is 5.1 nM.

How did the IC50 [1] turn out when Cn1cc(/C=C/C(=O)NS(=O)(=O)c2cc(F)cc(F)c2)c2c(Oc3ccc4ccccc4c3)cccc21 was run?
Its IC50 is 44.9 nM.

What about the Ratio IC50 [2] of the same compound?
Its Ratio IC50 is 3.5.

What about the IC50 [3] of the same compound?
The IC50 was 157 nM.

How did the IC50 [1] turn out when Cn1cc(/C=C/C(=O)NS(=O)(=O)c2ccc(F)cc2)c2c(Oc3ccc4ccccc4c3)cccc21 was run?
The IC50 was 9.4 nM.

What about the Ratio IC50 [2] of the same compound?
Its Ratio IC50 is 19.4.

What about the IC50 [3] of the same compound?
Its IC50 is 182 nM.

Cn1cc(/C=C/C(=O)NS(=O)(=O)c2cc(F)c(F)cc2F)c2c(Oc3ccc(Cl)cc3)cccc21 was tested. Which IC50 [1] did it give?
Its IC50 is 3 nM.

What about the Ratio IC50 [2] of the same compound?
Its Ratio IC50 is 132.

And the IC50 [3]?
Its IC50 is 393 nM.

Which IC50 [1] does the source give for COc1ccc(S(=O)(=O)NC(=O)/C=C/c2cn(C)c3cccc(Oc4ccc5ccccc5c4)c23)cc1 here?
Its IC50 is 101 nM.

Which IC50 [1] does the source give for Cn1cc(/C=C/C(=O)NS(=O)(=O)c2ccc(F)c(F)c2)c2c(Oc3ccc(Cl)c(F)c3)cccc21 here?
Its IC50 is 23.4 nM.

And the Ratio IC50 [2]?
The Ratio IC50 was 26.3.

What about the IC50 [3] of the same compound?
Its IC50 is 612 nM.

How did the IC50 [1] turn out when Cn1cc(/C=C/C(=O)NS(=O)(=O)c2c(F)c(F)c(F)c(F)c2F)c2c(Oc3ccc4ccccc4c3)cccc21 was run?
The IC50 was 5.1 nM.

Which IC50 [1] does the source give for Cn1cc(/C=C/C(=O)NS(=O)(=O)c2ccc(F)c(F)c2)c2c(Oc3cnc4ccccc4n3)cccc21 here?
The IC50 was 6.1 nM.

And the Ratio IC50 [2]?
The Ratio IC50 was 35.3.

And the IC50 [3]?
The IC50 was 217 nM.

Cn1cc(/C=C/C(=O)NS(=O)(=O)c2ccc(F)c(F)c2)c2c(Oc3ccc(Cl)cc3)cccc21 was tested. Which IC50 [1] did it give?
The IC50 was 27.3 nM.

What about the Ratio IC50 [2] of the same compound?
The Ratio IC50 was 28.4.

What about the IC50 [3] of the same compound?
Its IC50 is 776 nM.

Which IC50 [1] does the source give for Cn1cc(/C=C/C(=O)NS(=O)(=O)c2cc(Cl)c(Cl)s2)c2c(Oc3ccc4ccccc4c3)cccc21 here?
The IC50 was 4.6 nM.

What about the Ratio IC50 [2] of the same compound?
Its Ratio IC50 is 19.4.

What about the IC50 [3] of the same compound?
The IC50 was 89.6 nM.

What does the source list for Cn1cc(/C=C/C(=O)NS(=O)(=O)c2ccccc2Cl)c2c(Oc3ccc4ccccc4c3)cccc21?
IC50 [1]: 18.4 nM; Ratio IC50 [2]: 91.3; IC50 [3]: 1680 nM

Cn1cc(/C=C/C(=O)NS(=O)(=O)c2cc(F)c(F)cc2F)c2c(Oc3ccc4ncccc4c3)cccc21 was tested. Which IC50 [1] did it give?
Its IC50 is 8.5 nM.

And the Ratio IC50 [2]?
The Ratio IC50 was 19.8.

What about the IC50 [3] of the same compound?
Its IC50 is 168 nM.

Cn1cc(/C=C/C(=O)NS(=O)(=O)c2ccc(F)c(F)c2)c2c(Oc3ccc(F)cc3F)cccc21 was tested. Which IC50 [1] did it give?
The IC50 was 18.5 nM.

Which IC50 [1] does the source give for Cn1cc(/C=C/C(=O)NS(=O)(=O)c2ccccc2F)c2c(Oc3ccc4ccccc4c3)cccc21 here?
The IC50 was 11.9 nM.

And the Ratio IC50 [2]?
Its Ratio IC50 is 54.3.

What about the IC50 [3] of the same compound?
The IC50 was 646 nM.

For Cn1cc(/C=C/C(=O)NS(=O)(=O)c2cc(F)c(F)cc2F)c2c(Oc3cnc4ccccc4n3)cccc21, which IC50 [1] is on record?
The IC50 was 7.2 nM.

And the Ratio IC50 [2]?
The Ratio IC50 was 17.7.

What about the IC50 [3] of the same compound?
Its IC50 is 128 nM.

How did the IC50 [1] turn out when Cn1cc(/C=C/C(=O)NS(=O)(=O)c2cc(F)c(F)cc2F)c2c(Oc3ccc(F)cc3F)cccc21 was run?
Its IC50 is 84.8 nM.

Which IC50 [1] does the source give for Cn1cc(/C=C/C(=O)NS(=O)(=O)c2ccc(F)c(F)c2)c2c(Oc3ccc(F)c(F)c3)cccc21 here?
Its IC50 is 4.7 nM.

What about the Ratio IC50 [2] of the same compound?
The Ratio IC50 was 41.9.

What about the IC50 [3] of the same compound?
Its IC50 is 196 nM.

Which results are given for Cn1cc(/C=C/C(=O)NS(=O)(=O)c2cc(F)c(F)cc2F)c2c(Oc3ccc(F)c(F)c3)cccc21?
IC50 [1]: 3.8 nM; Ratio IC50 [2]: 55; IC50 [3]: 209 nM

How did the IC50 [1] turn out when Cn1cc(/C=C/C(=O)NS(=O)(=O)c2ccc(F)c(F)c2)c2c(Oc3ccc(F)cc3Cl)cccc21 was run?
Its IC50 is 13.8 nM.

What about the Ratio IC50 [2] of the same compound?
The Ratio IC50 was 10.5.

What about the IC50 [3] of the same compound?
The IC50 was 146 nM.

Which IC50 [1] does the source give for Cn1cc(/C=C/C(=O)NS(=O)(=O)c2cc(F)ccc2F)c2c(Oc3ccc4ccccc4c3)cccc21 here?
The IC50 was 6.5 nM.

What about the Ratio IC50 [2] of the same compound?
Its Ratio IC50 is 24.3.

What about the IC50 [3] of the same compound?
The IC50 was 157 nM.

How did the IC50 [1] turn out when COc1cccc(Oc2cccc3c2c(/C=C/C(=O)NS(=O)(=O)c2ccc(F)c(F)c2)cn3C)c1 was run?
Its IC50 is 4.4 nM.

From ChEMBL document CHEMBL1153263, “3-Acrylamide-4-aryloxyindoles: synthesis, biological evaluation and metabolic stability of potent and selective EP3 receptor antagonists” (Bioorg Med Chem Lett, 2009)
